Experimental data as given in PubChem BioAssay AID266 (DTP/NCI, 2004).
Values joined by “and” are separate entries in the source; they are usually repeats but may differ in a detail not shown here. Equal entries are not always repeated. Results filed as inconclusive are left out.

Tested on: Nude mice, LX-1 lung xenograft intrarenal, tumor weight T/C
Experiment: NCI In Vivo Anticancer Drug Screen. Data for tumor model Human Lung LX-1 Xenograft (intrarenal inoculation) in NU/NU BALB/C (nude) mice
Conditions: endpoint: mean tumor weight change, higher = larger tumour
Procedure: The antitumor activity of compounds was measured in mice bearing transplantable tumors. Survival or tumor size were measured and the results are expressed as the measurement made in the treated group (T) divided by the measurement made in the vehicle treated control group (C). The tumor model used in this assay is Human Lung LX-1 Xenograft (intrarenal inoculation) in NU/NU BALB/C (nude) mice

[1] = dose: 150.0 mg/kg/injection, schedule: Q04DX003 (ip), vehicle: saline
[2] = dose: 600.0 mg/kg/injection, schedule: Q04DX003 (ip), vehicle: saline
[3] = dose: 300.0 mg/kg/injection, schedule: Q04DX003 (sc), vehicle: saline with Tween-80
[4] = dose: 600.0 mg/kg/injection, schedule: Q04DX003 (sc), vehicle: saline with Tween-80
[5] = dose: 1200.0 mg/kg/injection, schedule: Q04DX003 (sc), vehicle: saline with Tween-80
[6] = dose: 40.0 mg/kg/injection, schedule: Q04DX003 (sc), vehicle: water
[7] = dose: 2400.0 mg/kg/injection, schedule: Q04DX003 (sc), vehicle: saline with Tween-80
[8] = dose: 300.0 mg/kg/injection, schedule: Q04DX003 (sc), vehicle: saline
[9] = dose: 600.0 mg/kg/injection, schedule: Q04DX003 (sc), vehicle: saline
[10] = dose: 1200.0 mg/kg/injection, schedule: Q04DX003 (sc), vehicle: saline
[11] = dose: 75.0 mg/kg/injection, schedule: Q04DX003 (ip), vehicle: saline
[12] = dose: 150.0 mg/kg/injection, schedule: Q04DX003 (ip), vehicle: Klucel (hydroxypropylcellulose) (HPC)

CC(C)CCC(=O)c1ccoc1
T/C (dose: 0.75 mg/kg/injection, schedule: Q01DX010 (ip), vehicle: saline with Tween-80): 123 % of control | T/C (dose: 3.0 mg/kg/injection, schedule: Q01DX010 (ip), vehicle: saline with Tween-80): 71 % of control | T/C (dose: 6.0 mg/kg/injection, schedule: Q01DX010 (ip), vehicle: saline with Tween-80): 73 % of control

N=c1ccn2c(n1)OC1C(O)C(CO)OC12 (stereo unspecified)
T/C (dose: 400.0 mg/kg/injection, schedule: Q04DX003 (sc), vehicle: saline): 67 % of control | T/C (dose: 800.0 mg/kg/injection, schedule: Q04DX003 (sc), vehicle: saline): 48 % of control | T/C (dose: 1600.0 mg/kg/injection, schedule: Q04DX003 (sc), vehicle: saline): 16 % of control | T/C (dose: 3200.0 mg/kg/injection, schedule: Q04DX003 (sc), vehicle: saline): 8 % of control

CCOC(=O)C(N)CSC(=O)NC (stereo unspecified)
T/C [1]: 82 % of control | T/C (dose: 300.0 mg/kg/injection, schedule: Q04DX003 (ip), vehicle: saline): 52 % of control | T/C [2]: 102 % of control

CC(=O)Nc1cscc1NC(C)=O
T/C (dose: 150.0 mg/kg/injection, schedule: Q04DX003 (sc), vehicle: saline with Tween-80): 89 % of control | T/C [3]: 121 % of control | T/C [4]: 111 % of control | T/C [5]: 110 % of control

CC1(C)CC2(C)OC2C2(C1)N=NC(=Nc1ccccc1)O2 (stereo unspecified)
T/C [3]: 104 % of control | T/C [4]: 61 % of control | T/C [5]: 91 % of control

CCCCCCCCCCC(OC(C)=O)C1CCC(C2CCC(C(O)CCCCCCCCCCCCC3C=C(C)OC3=O)O2)O1 (stereo unspecified)
T/C (dose: 5.0 mg/kg/injection, schedule: Q04DX003 (sc), vehicle: water): 93 % of control | T/C (dose: 10.0 mg/kg/injection, schedule: Q04DX003 (sc), vehicle: water): 114 % of control | T/C (dose: 20.0 mg/kg/injection, schedule: Q04DX003 (sc), vehicle: water): 108 % of control | T/C [6]: 110 % of control

Cc1c(-c2ccc(-c3ccccc3F)cc2)nc2ccc(F)cc2c1C(=O)O
T/C (dose: 6.9 mg/kg/injection, schedule: Q01DX009 (ip), vehicle: water): 7 % of control and 13 % of control and 31 % of control | T/C (dose: 19.2 mg/kg/injection, schedule: Q01DX009 (ip), vehicle: water): 5 % of control and 14 % of control and 21 % of control | T/C (dose: 32.0 mg/kg/injection, schedule: Q01DX009 (ip), vehicle: water): 15 % of control and 17 % of control

O=Cc1ccc(C=O)c(Cl)c1
T/C (dose: 300.0 mg/kg/injection, schedule: Q04DX003 (sc), vehicle: Klucel (hydroxypropylcellulose) (HPC)): 81 % of control | T/C (dose: 600.0 mg/kg/injection, schedule: Q04DX003 (sc), vehicle: Klucel (hydroxypropylcellulose) (HPC)): 88 % of control | T/C (dose: 1200.0 mg/kg/injection, schedule: Q04DX003 (sc), vehicle: Klucel (hydroxypropylcellulose) (HPC)): 79 % of control | T/C (dose: 2400.0 mg/kg/injection, schedule: Q04DX003 (sc), vehicle: Klucel (hydroxypropylcellulose) (HPC)): 152 % of control

CC(/C=C/c1ccccc1)=Nc1ccccc1
T/C [3]: 63 % of control | T/C [4]: 108 % of control | T/C [5]: 83 % of control | T/C [7]: 100 % of control

N#CCCSC(=S)C1CCCC1=N (stereo unspecified)
T/C [3]: 84 % of control | T/C [4]: 79 % of control | T/C [5]: 102 % of control | T/C [7]: 91 % of control

COC(=O)CC(N)C(=O)O (stereo unspecified)
T/C [8]: 84 % of control | T/C [9]: 80 % of control | T/C [10]: 55 % of control | T/C (dose: 2400.0 mg/kg/injection, schedule: Q04DX003 (sc), vehicle: saline): 54 % of control

C[C@@H]1C[C@@H]([C@H](O)CC2CC(=O)NC(=O)C2)C(=O)[C@@H](C)C1
T/C (dose: 18.75 mg/kg/injection, schedule: Q04DX003 (sc), vehicle: saline): 94 % of control | T/C (dose: 37.5 mg/kg/injection, schedule: Q04DX003 (sc), vehicle: saline): 114 % of control | T/C (dose: 75.0 mg/kg/injection, schedule: Q04DX003 (sc), vehicle: saline): 118 % of control | T/C (dose: 150.0 mg/kg/injection, schedule: Q04DX003 (sc), vehicle: saline): 110 % of control

CCCCNc1ccc2nnc(C)n2n1
T/C (dose: 150.0 mg/kg/injection, schedule: Q04DX003 (ip), vehicle: DMSO): 99 % of control

OCC(O)C(O)C(O)C(O)CO (stereo unspecified)
T/C [11]: 108 % of control | T/C [2]: 109 % of control | T/C (dose: 1200.0 mg/kg/injection, schedule: Q04DX003 (ip), vehicle: saline): 94 % of control

CN1C(=O)C(=Cc2ccc(O)cc2)C(=O)N(C)C1=O
T/C [3]: 114 % of control | T/C [4]: 110 % of control | T/C [5]: 87 % of control | T/C [7]: 68 % of control

CC[C@]1(O)C[C@H]2CN(CCc3c([nH]c4ccccc34)[C@@](C(=O)OC)(c3cc4c(cc3OC)N(C=O)[C@H]3[C@@](O)(C(=O)OC)[C@H](OC(C)=O)[C@]5(CC)C=CCN6CC[C@]43[C@@H]65)C2)C1
T/C (dose: 0.13 mg/kg/injection, schedule: Q01DX010 (sc), vehicle: saline): 69 % of control | T/C (dose: 0.25 mg/kg/injection, schedule: Q01DX010 (sc), vehicle: saline): 20 % of control | T/C (dose: 0.5 mg/kg/injection, schedule: Q01DX010 (sc), vehicle: saline): 1 % of control

CC(=O)NC(CCc1ccc(Cl)c(Cl)c1)c1cccc(O)c(=O)c1 (stereo unspecified)
T/C (dose: 50.0 mg/kg/injection, schedule: Q04DX003 (ip), vehicle: Klucel (hydroxypropylcellulose) (HPC)): 52 % of control | T/C (dose: 100.0 mg/kg/injection, schedule: Q04DX003 (ip), vehicle: Klucel (hydroxypropylcellulose) (HPC)): 62 % of control | T/C (dose: 200.0 mg/kg/injection, schedule: Q04DX003 (ip), vehicle: Klucel (hydroxypropylcellulose) (HPC)): 57 % of control

O=C1C2CC(Cl)C(SSC3CC4C(=O)N(SC(Cl)(Cl)C(Cl)Cl)C(=O)C4CC3Cl)CC2C(=O)N1SC(Cl)(Cl)C(Cl)Cl (stereo unspecified)
T/C (dose: 75.0 mg/kg/injection, schedule: Q04DX003 (ip), vehicle: Klucel (hydroxypropylcellulose) (HPC)): 83 % of control | T/C [12]: 102 % of control | T/C (dose: 300.0 mg/kg/injection, schedule: Q04DX003 (ip), vehicle: Klucel (hydroxypropylcellulose) (HPC)): 76 % of control | T/C (dose: 600.0 mg/kg/injection, schedule: Q04DX003 (ip), vehicle: Klucel (hydroxypropylcellulose) (HPC)): 48 % of control

O=C(O)CP(=O)(O)O
T/C [8]: 105 % of control | T/C [9]: 156 % of control | T/C [10]: 106 % of control

Cn1cnc([N+](=O)[O-])c1[Se]c1nc(N)nc2nc[nH]c12
T/C (dose: 50.0 mg/kg/injection, schedule: Q01DX010 (sc), vehicle: water): 64 % of control | T/C (dose: 100.0 mg/kg/injection, schedule: Q01DX010 (sc), vehicle: water): 69 % of control

Nc1ncn(C2CC(O)C(CO)O2)c(=O)n1 (stereo unspecified)
T/C (dose: 0.75 mg/kg/injection, schedule: Q01DX010 (sc), vehicle: saline): 85 % of control

CC(=Nc1ccccc1)C1=C(O)C(Cc2ccccc2)NC1=O (stereo unspecified)
T/C [3]: 52 % of control | T/C [4]: 32 % of control | T/C [5]: 40 % of control | T/C [7]: 30 % of control

CC(=O)C(O)N1C(=O)C=CC1=O (stereo unspecified)
T/C (dose: 2.5 mg/kg/injection, schedule: Q01DX010 (sc), vehicle: saline): 73 % of control | T/C (dose: 5.0 mg/kg/injection, schedule: Q01DX010 (sc), vehicle: saline): 92 % of control | T/C (dose: 10.0 mg/kg/injection, schedule: Q01DX010 (sc), vehicle: saline): 101 % of control

CCC12C[N+]3([O-])CCc4c([nH]c5ccccc45)C(C(=O)OC)(c4cc5c(cc4OC)N(C)C4C(O)(C(=O)OC)C(OC(C)=O)C6(CC)C=CCN7CCC54C76)CC(C3)C1O2 (stereo unspecified)
T/C [6]: 64 % of control | T/C (dose: 80.0 mg/kg/injection, schedule: Q04DX003 (sc), vehicle: water): 86 % of control | T/C (dose: 160.0 mg/kg/injection, schedule: Q04DX003 (sc), vehicle: water): 93 % of control | T/C (dose: 320.0 mg/kg/injection, schedule: Q04DX003 (sc), vehicle: water): 93 % of control

CN(C)CCC(=O)C(=Cc1ccc(O)cc1)C(=O)CCN(C)C
T/C [11]: 95 % of control | T/C [1]: 116 % of control

Oc1c(Cl)cc(Cl)cc1C=NCCSc1ccc(Cl)cc1
T/C [12]: 71 % of control | T/C (dose: 1200.0 mg/kg/injection, schedule: Q04DX003 (ip), vehicle: Klucel (hydroxypropylcellulose) (HPC)): 70 % of control

O=CC(S)CO (stereo unspecified)
T/C (dose: 100.0 mg/kg/injection, schedule: Q04DX003 (sc), vehicle: suspension in saline): 94 % of control | T/C (dose: 200.0 mg/kg/injection, schedule: Q04DX003 (sc), vehicle: suspension in saline): 94 % of control | T/C (dose: 400.0 mg/kg/injection, schedule: Q04DX003 (sc), vehicle: suspension in saline): 84 % of control
